Seven molecules from US20160219881A1, “HERBICIDALLY ACTIVE 2-HALOGEN-4-ALKYNYL-PHENYL-PYRAZOLIDINE-DIONE OR PYRROLIDINE-DIONE DERIVATIVES” (SYNGENTA LIMITED, priority 2013, published 2016) can be followed below.

What all share (assay type): in vivo
Assay [1] relates to Echinochloa crus-galli (ECHCG). Put plainly: Test 1A glasshouse assay, post-emergence herbicidal activity. The note with it: 312 h, 13 days after application, read-out: Post-Emergence Herbicidal Activity (% Phytotoxicity) ECHCG. How it is done:
(§1) Seeds of a variety of test species are sown in standard soil (usually sandy soil) in pots. After cultivation for one day (pre-emergence) or after 8 days cultivation (post-emergence) under controlled conditions in a glasshouse (at 24/16° C., day/night; 14 hours light; 65% humidity), the plants are sprayed with an aqueous spray solution derived from the formulation of the technical active ingredient (compound) in acetone/water (50:50) solution containing 0.5% Tween 20 (polyoxyethylene sorbitan monolaurate, CAS RN 9005-64-5). The test plants are then grown under controlled conditions in a glasshouse (at 24/16° C., day/night; 14 hours light; 65% humidity) and watered twice daily. 13 days after application of the test compounds, for pre- and post-emergence, the test is evaluated visually for percentage phytotoxicity to each plant (where 100%=total damage to plant; 0%=no damage to plant).
(§2) Alopecurus myosuroides (ALOMY), Setaria faberi (SETFA), Echinochloa crus-galli (ECHCG), Amaranthus retroflexus (AMARE), and Abutilon theophasti Medik. (ABUTH, common English name “velvetleaf”). Of these, Alopecurus myosuroides (ALOMY), Setaria faberi (SETFA), and Echinochloa crus-galli (ECHCG) are grassy monocotyledonous weeds. […]

Assay [2] relates to Alopecurus myosuroides (ALOMY). The assay is described as above. The note with it: 312 h, 13 days after application, read-out: Post-Emergence Herbicidal Activity (% Phytotoxicity) ALOMY. How it is done:
as §1, §2

In assay [3] the test system is Setaria faberi (SETFA). The description is as above. The note with it: 312 h, 13 days after application, read-out: Post-Emergence Herbicidal Activity (% Phytotoxicity) SET FA. How it is done: as §1
(§3) Alopecurus myosuroides (ALOMY), Setaria faberi (SETFA), Echinochloa crus-galli (ECHCG), Amaranthus retroflexus (AMARE), and Abutilon theophasti Medik. (ABUTH, common English name “velvetleaf”). Of these, Alopecurus myosuroides (ALOMY), Setaria faberi (SETFA), and Echinochloa crus-galli (ECHCG) are grassy monocotyledonous weeds.

Assay [4] concerns Abutilon theophasti Medik. (ABUTH). Described as above. The note with it: 312 h, 13 days after application, read-out: Post-Emergence Herbicidal Activity (% Phytotoxicity) ABUTH. How it is done:
as §1, §3

For assay [5], the system named is Amaranthus retroflexus (AMARE). The description is as above. The note with it: 312 h, 13 days after application, read-out: Post-Emergence Herbicidal Activity (% Phytotoxicity) AMARE. As to the method: as §1, §3
The subject of assay [6] is Alopecurus myosuroides (ALOMY). The assay is described as follows: Test 1A glasshouse assay, pre-emergence herbicidal activity. The conditions noted are these: 312 h, 13 days after application, read-out: Pre-Emergence Herbicidal Activity (% Phytotoxicity) ALOMY. As to the method: as §1, §3
Lolium perenne (LOLPE), Triticum aestivum (TRZAW, winter wheat), Alopecurus myosuroides (ALOMY), Echinochloa crus-galli (ECHCG), and Avena fatua (AVEFA). All these are grassy monocotyledonous weeds and/or (for wheat) grassy crops.

The subject of assay [7] is Echinochloa crus-galli (ECHCG). Described as above. The conditions noted are these: 312 h, 13 days after application, read-out: Pre-Emergence Herbicidal Activity (% Phytotoxicity) ECHCG. As to the method: as §1, §2
The test system of assay [8] is Setaria faberi (SETFA). Described as above. The note with it: 312 h, 13 days after application, read-out: Pre-Emergence Herbicidal Activity (% Phytotoxicity) SET FA. As to the method:
as §1, §3

The subject of assay [9] is Amaranthus retroflexus (AMARE). The assay is described as above. The conditions noted are these: 312 h, 13 days after application, read-out: Pre-Emergence Herbicidal Activity (% Phytotoxicity) AMARE. As to the method: as §1, §3
The subject of assay [10] is Abutilon theophasti Medik. (ABUTH). The description is as above. The note with it: 312 h, 13 days after application, read-out: Pre-Emergence Herbicidal Activity (% Phytotoxicity) ABUTH. How it is done:
as §1, §3

Each structure is given as a SMILES string.

In the case of `CC#Cc1ccc(C2C(=O)N(C)N(C)C2=O)c(C)c1` [Compound A2], the inhibition at 250 g/ha in [1] worked out at 90%; in [2] it was 70%; in assay [3] it was 80%; in [4], 10%; in [5] it was 100%; in assay [6] it was 80%. Besides, the inhibition at 250 g/ha is 70% in assay [7], 90% in assay [8] and 10% in [9].

As for `CC#Cc1cc(OC)c(C2C(=O)N(C)N(C)C2=O)c(OC)c1` [Compound A5], the inhibition at 30 g/ha in assay [1] was found to be 90%; in assay [2], 70%; in assay [3], 80%; in assay [4] it was 0%; in [5] it was 0%. Besides, the inhibition at 250 g/ha in assay [1] amounted to 100%; in [2] it was 90%; in assay [3], 90%; in assay [4], 0%; in assay [5], 0%; in assay [6], 90%. Besides, the inhibition at 250 g/ha in assay [7] was found to be 90%; in [8], 100%; in [10], 0%; in [9], 10%.

In the case of `CC#Cc1cc(C)c(C2C(=O)N(CC)N(CC)C2=O)c(C)c1` [Compound A6], the inhibition at 30 g/ha turned out to be 40% in assay [1]; 20% in assay [2]; 70% in [3]; 30% in [4]; 0% in assay [5]. For the same molecule, the inhibition at 250 g/ha worked out at 80% in [1]; 80% in assay [2]; 80% in assay [3]; 30% in [4]; 30% in [5]; 50% in assay [6]. Besides, the inhibition at 250 g/ha in assay [7] was 80%; in assay [8], 70%; in [10] it was 30%; in [9] it was 70%.

Regarding `CC#Cc1cc(C)c(C2C(=O)N3CCCCN3C2=O)c(C)c1` [Compound A18], the inhibition at 30 g/ha came to 20% in assay [1]; 50% in [2]; 70% in assay [3]; 70% in assay [4]; 40% in assay [5]; 60% in assay [6]. Besides, the inhibition at 30 g/ha in [7] came out at 60%; in assay [8], 50%; in [10], 40%; in assay [9], 20%. Further, the inhibition at 250 g/ha in [1] turned out to be 100%; in assay [2] it was 80%; in [3], 90%; in [4], 80%; in [5], 80%; in [6], 100%. Moreover, the inhibition at 250 g/ha in assay [7] came to 90%; in assay [8] it was 90%; in assay [10], 50%; in [9], 40%.

As for `CC#Cc1cc(C)c(C2C(=O)N3CCOCCN3C2=O)c(C)c1` [Compound A28], the inhibition at 30 g/ha is 80% in assay [1]; 60% in assay [2]; 70% in [3]; 60% in assay [4]; 10% in assay [5]; 70% in assay [6]. Also, the inhibition at 30 g/ha in [7] was 80%; in assay [8], 50%; in assay [10] it was 10%; in assay [9], 20%. Besides, the inhibition at 250 g/ha in assay [1] turned out to be 100%; in assay [2], 90%; in [3], 100%; in assay [4] it was 70%; in assay [5] it was 30%; in [6], 100%. Moreover, the inhibition at 250 g/ha came out at 100% in assay [7], 100% in assay [8], 10% in [10] and 30% in [9].

`CC#Cc1cc(C)c(-c2c(OC(C)=O)n(C)n(C)c2=O)c(C)c1` [Compound P2]: the inhibition at 30 g/ha in [1] is 80%; in assay [2], 40%; in [3], 40%; in [4], 10%; in [5], 0%. For the same molecule, the inhibition at 250 g/ha amounted to 100% in assay [1]; 90% in assay [2]; 90% in assay [3]; 60% in assay [4]; 30% in assay [5]; 90% in assay [6]. Further, the inhibition at 250 g/ha was 100% in assay [7], 90% in [8], 0% in assay [10] and 70% in assay [9].

Regarding `CC#Cc1cc(C)c(-c2c(OC(=O)C(C)(C)C)n3n(c2=O)CCCCC3)c(C)c1` [Compound P3, [2-(2,6-dimethyl-4-prop-1-ynyl-phenyl)-1-oxo-6,7,8,9-tetrahydro-5H-pyrazolo[1,2-a]diazepin-3-yl]2,2-dimethylpropanoate], the inhibition at 30 g/ha in [1] turned out to be 60%; in assay [2], 40%; in assay [3], 20%; in assay [4], 10%; in assay [5] it was 0%. The inhibition at 250 g/ha came to 100% in assay [1]; 50% in assay [2]; 70% in assay [3]; 0% in [4]; 20% in [6]; 20% in assay [7]. In addition, the inhibition at 250 g/ha in assay [8] turned out to be 70%; in assay [10], 10%; in [9], 20%.
